In patent US20230263822A1, “MODULATION OF FACTOR 11 EXPRESSION” (Ionis Pharmaceuticals, Inc., priority 2008, published 2023):

Tests used:
Factor 11 mRNA = Factor 11 mRNA in liver, FeCl3 induced venous thrombosis model vs warfarin (Example 11); format: in vivo, BALB/c mice; conditions: FeCl3 induced VT model; ISIS 404071 1.25-40 mg/kg s.c. twice a week 3 weeks; warfarin 0.5-5 mg/kg daily 6 days
Method: (§1) Two control groups of BALB/c mice were treated with PBS, administered subcutaneously twice a week for 3 weeks. Two days after the last dose of PBS, mice in both groups were anesthetized with 150 mg/kg ketamine mixed with 10 mg/kg xylazine administered by intraperitoneal injection. Thrombus formation was induced with FeCl3 in all groups of mice except the first control group.
(§2) In mice undergoing FeCl3 treatment, thrombus formation was induced by applying a piece of filter paper (2×4 mm) pre-saturated with 10% FeCl3 solution directly on the vena cava. After 3 minutes of exposure, the filter paper was removed. Thirty minutes after the filter paper application, a fixed length of the vein containing the thrombus was dissected out for platelet analysis. Liver was collected for RNA analysis.
RNA was extracted from liver tissue for real-time PCR analysis of Factor 11.

blood coagulation [1] = assay: PT and aPTT, combination with warfarin (Example 21); format: in vivo, BALB/c mice
Method: Plasma was collected from each group 5 days after the last dose was administered. […] In a final group of BALB/c mice, PBS was administered subcutaneously twice a week for three weeks, as a control. Plasma was collected 5 days after the last PBS treatment.
PT and aPTT values provided in Table 33 are reported as International Normalized Ratio (INR) values.

platelet factor-4 (PF-4) = assay: Thrombus formation by PF-4 real-time PCR, FeCl3 induced venous thrombosis model vs warfarin (Example 11); format: in vivo, BALB/c mice; conditions: for PF-4 in vena cava, percentage as compared to PBS controls (thrombus formation): + FeCl3
Method: as §1, §2
Real-time PCR quantification of platelet factor-4 (PF-4) was used to quantify platelets in the vena cava as a measure of thrombus formation.

blood coagulation [2] = assay: PT and aPTT vs warfarin (Example 13); format: in vivo, BALB/c mice; conditions: for aPTT INR / PT INR: PPP two days after final dose
Method: In a control group, BALB/c mice were treated with PBS, administered subcutaneously mice twice a week for 3 weeks.
Two days after the final dose was administered, PPP was collected and PT and aPTT assays were performed.
PT and aPTT values provided in Table 16 are reported as International Normalized Ratio (INR) values. […] This ratio was then raised to the power of the International Sensitivity Index (ISI) of the tissue factor used.

[3] = Collagenase-induced intracerebral hemorrhage model: hemorrhage volume, neurologic deficit score, mortality (Example 25); format: in vivo, BALB/c mice; conditions: ISIS oligonucleotides 40 mg/kg s.c., warfarin 2 mg/kg intraperitoneally, twice a week for two weeks
Method: In a first cohort, ISIS 404071 was administered subcutaneously to BALB/c mice twice a week for two weeks at a dose 40 mg/kg. […] In a third cohort, ISIS 421208 ([…], 8 mismatches to murine Factor 11, incorporated herein as SEQ ID NO: 14) was administered subcutaneously to BALB/c mice twice a week for two weeks at a dose 40 mg/kg. In a fourth cohort, PBS was administered to BALB/c mice twice a week for two weeks.
Two days after receiving their final dose, all mice in all cohorts were anesthetized with […] of avertin. Next, the mice were injected at −1 mm AP, 1 mm R ML, −4 mm DV from bregma flat skull with a 10 μL Hamilton syringe containing 0.075 U collagenase (150 U/mL). Collagenase was delivered over 5 minutes and the needle was kept in place for an additional 5 minutes to prevent reflux. The mice were then analyzed for hemorrhagic size, neurologic deficit score, and mortality.
Table 37 presents the hemorrhage volume detected in mice after collagenase treatment, Table 38 presents the neurologic deficit score of the mice, and Table 39 presents the mortality rate of the mice. Neurological deficit is measured by a standard scoring system where no deficiency is zero and severe deficit is five.

[4] = Tail bleeding assay vs warfarin (Example 12)
Method: A separate control group of BALB/c mice was treated with PBS, administered subcutaneously twice a week for 3 weeks.
Mice were anesthetized in the chamber with isoflurane and a small piece of tail (approximately 4 mm from the tip) was cut with sterile scissors. The tail cut was immediately placed in a 15 mL Falcon tube filled with approximately 10 mL of 0.9% NaCl buffer solution warmed to 37° C. The blood was collected over the course of 40 minutes. The saline filled tubes were weighed both before and after bleeding.

[5] = test system: mesenteric vein thrombosis; assay: Mesenteric vein thrombosis, intravital microscopy (Example 22); format: in vivo; conditions: C57BL/6 mice, 50 mg/kg s.c. twice a week for three weeks, 10% FeCl3 on mesenteric vein
Method: In a first cohort, ISIS 404071 was administered subcutaneously to C57BL/6 mice twice a week for three weeks at a dose of 50 mg/kg. In a second cohort, a control oligonucleotide, ISIS 405277 ([…]; antisense oligonucleotide for Factor 2), incorporated herein as SEQ ID NO: 12 was administered subcutaneously to C57Bl/6 mice twice a week for three weeks at a dose of 50 mg/kg.
Blood was collected from the retro-orbital venous plexus of naïve C57BL/6 mice by puncture and collected in polypropylene tubes containing 300 μl of heparin (30 U/ml). Platelet rich plasma (PRP) was obtained by centrifugation at 1000 rpm for 5 min. The PRP was transferred to fresh tubes containing 2 μl of Prostaglandin I2 (PGI2) (2 μg/ml) and incubated at 37° C. for 5 min. After centrifugation at 2600 rpm, pellets were resuspended in 1 ml modified Tyrode's-HEPES buffer (137 mM NaCl, 0.3 mM Na2HPO4, 2 mM KCl, 12 mM NaHCO3, 5 mM HEPES, 5 mM glucose, 0.35% BSA, pH 7.2) containing 2 μl of PGI2 and incubated at 37° C. for 5 min. The suspended pellet was centrifuged at 2600 rpm for 5 min. To remove PGI2, the washing step was repeated twice and platelets were fluorescently labeled with calcein AM 2.5 μg/mL (Molecular Probes, Eugene, Oreg.) for 10 min at room temperature.
Fluorescently-labeled platelets were injected intravenously in ISIS 404071 treated and control oligonucleotide treated C57BL/6 mice. […] The exposed mesentery was kept moist throughout the experiment by periodic superfusion with warmed (37° C.) PBS. The mesentery was transluminated with a 12V, 100 W, DC stabilized source. Veins were visualized using a Zeiss (Germany) Axiovert 135 inverted microscope (Objective 32X) connected to an SVHS video recorder (AG-6730; Panasonic, Tokyo, Japan) using a CCD video camera (Hamamatsu Photonic Systems, Hamamatsu City, Japan). Centerline erythrocyte velocity (Vrbc) was measured using an optical Doppler velocimeter (Microcirculation Research Institute, Texas A&M College of Medicine, College Station, Tex.). Venular shear rate (τ) was calculated based on Poiseuille's Law for a newtonian fluid, τ=8(Vmean/Dv), where Dv is the diameter of the venule and Vmean is estimated from the measured Vrbc using the empirical correlation Vmean=Vrbc/1.6.
Mesenteric vein thrombosis was performed two days after the last antisense oligonucleotide injection. Thrombosis was induced by applying Whatman paper soaked in a 10% FeCl3 solution for 5 minutes on the mesenteric vein. The vein was monitored for 40 minutes, or until occlusion. The elapsed time before the first thrombus 30-50 μm in diameter and the elapsed time before blood stopped flowing for 30 seconds were observed.

[6] = BALB/c mice, ISIS 404071 25 or 50 mg/kg, warfarin 2 mg/kg
[7] = Warfarin 2 mg/kg once daily for 5 days
[8] = Warfarin 0.5 mg/kg intraperitoneally daily for 6 days
[9] = Warfarin 1 mg/kg intraperitoneally daily for 6 days
[10] = Warfarin 2 mg/kg intraperitoneally daily for 6 days
[11] = Warfarin 3 mg/kg intraperitoneally daily for 6 days
[12] = Warfarin 4 mg/kg intraperitoneally daily for 6 days
[13] = Warfarin 5 mg/kg intraperitoneally daily for 6 days
[14] = BALB/c mice, ISIS 404071 1.25-40 mg/kg, warfarin 0.5-5 mg/kg

CC(=O)CC(c1ccccc1)c1c(O)c2ccccc2oc1=O (centres unmarked) [warfarin]
Factor 11 mRNA in liver vs PBS control (Factor 11 mRNA): did not result in significant reduction of Factor 11 | PT (blood coagulation [1]; [6]): increase PT | aPTT (blood coagulation [1]; [6]): affected | PT INR (blood coagulation [1]; [7]): 21.33 INR | aPTT INR (blood coagulation [1]; [7]): 2.52 INR | PF-4 in vena cava as measure of thrombus formation (platelet factor-4 (PF-4); FeCl3 induced VT model, vs PBS control): reduction of PF-4 in comparison to the PBS control for dosages of 2 mg/kg and higher | PF-4 in vena cava, percentage as compared to PBS controls (thrombus formation) (platelet factor-4 (PF-4); [8]): 128% | PF-4 in vena cava, percentage as compared to PBS controls (thrombus formation) (platelet factor-4 (PF-4); [9]): 124% | PF-4 in vena cava, percentage as compared to PBS controls (thrombus formation) (platelet factor-4 (PF-4); [10]): 80% | PF-4 in vena cava, percentage as compared to PBS controls (thrombus formation) (platelet factor-4 (PF-4); [11]): 21% | PF-4 in vena cava, percentage as compared to PBS controls (thrombus formation) (platelet factor-4 (PF-4); [12]): 12% | PF-4 in vena cava, percentage as compared to PBS controls (thrombus formation) (platelet factor-4 (PF-4); [13]): 33% | PT (blood coagulation [2]; [14]): significantly prolonged at every dosage | aPTT (blood coagulation [2]; [14]): prolonged, particularly at dosages of 1 mg/kg and higher | aPTT INR (blood coagulation [2]; [8]): 1.10 INR | PT INR (blood coagulation [2]; [9]): 2.03 INR | aPTT INR (blood coagulation [2]; [9]): 1.31 INR | PT INR (blood coagulation [2]; [10]): 2.77 INR | aPTT INR (blood coagulation [2]; [10]): 1.54 INR | PT INR (blood coagulation [2]; [11]): 22.76 INR | aPTT INR (blood coagulation [2]; [11]): 2.90 INR | PT INR (blood coagulation [2]; [12]): 6.74 INR | aPTT INR (blood coagulation [2]; [12]): 2.18 INR | PT INR (blood coagulation [2]; [13]): 9.20 INR | aPTT INR (blood coagulation [2]; [13]): 2.29 INR | % mortality after collagenase treatment [3]: 80% | bleeding in tail bleeding assay ([4]; BALB/c mice, compared to PBS treated mice): did increase bleeding | Blood (tail bleeding, collected over 40 minutes) [4, 8]: 0.07 g | Blood (tail bleeding, collected over 40 minutes) [4, 9]: 0.35 g | Blood (tail bleeding, collected over 40 minutes) [4, 10]: 0.39 g | Blood (tail bleeding, collected over 40 minutes) [4, 11]: 0.51 g | Blood (tail bleeding, collected over 40 minutes) [4, 12]: 0.52 g | Blood (tail bleeding, collected over 40 minutes) [4, 13]: 0.76 g

ISIS 405277: control oligonucleotide AAGGACCTACACTATGGAAT; antisense oligonucleotide for Factor 2 (listed as DNA, chemistry not given here) [reference compound]
time of occlusion (occlusive thrombi) [5]: 19.3 ± 0.8 min | time of thrombus formation (30 μm in diameter) [5]: 8.9 ± 0.6 min
